Drawing on PubChem BioAssay (NCI), this text covers GI50 and TGI for ten molecules.

The term GI50 denotes the concentration at which growth is held to half of that of the control. One may read the TGI as the concentration at which net growth stops. Higher therefore signals less potent growth arrest.

Some test systems named below: ACHN renal; HOP-62 NSCLC; LOX IMVI melanoma; MDA-MB-435; NCI/ADR-RES ovarian; SK-MEL-5 melanoma; T-47D breast.
Holding throughout (test): DTP human tumour cell line panel, 48 h

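96-well plates; 48 h exposure; 5 concentrations. Endpoints by linear interpolation between flanking doses. Not reached: highest tested concentration assigned. GI50 marks 50% less growth. TGI denotes the concentration required for complete inhibition of growth.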 A value given as a limit tells only on which side of the number the result lay.

For the molecule `CNCCOC(=O)/C=C1\CC[C@H]2[C@@H]([C@@H](O)C(=O)[C@@H]3[C@]2(C)CC[C@H](O)[C@]3(C)C(=O)OC)[C@H]1C`, the GI50 was 0.25 µM in the experiment on ACHN renal; 0.241 µM in the experiment on HOP-62 NSCLC; 0.357 µM in the experiment with LOX IMVI melanoma; 0.368 µM in the experiment with MDA-MB-435; 0.22 µM with NCI/ADR-RES ovarian; 0.252 µM in the experiment on SK-MEL-5 melanoma. In addition, in the experiment on T-47D breast, the concentration for 50% growth inhibition (GI50) was 0.33 µM. The concentration for total growth inhibition (TGI) in the experiment on ACHN renal was determined as 0.785 µM; with HOP-62 NSCLC it was 0.595 µM; in the experiment on LOX IMVI melanoma, 1.38 µM; with MDA-MB-435, 1.45 µM; in the experiment on NCI/ADR-RES ovarian it was 0.444 µM; in the experiment with SK-MEL-5 melanoma it was 0.734 µM. The molecule further came in with a TGI with T-47D breast of 1.67 µM.
On to `N#Cc1nn(-c2cc(=O)[nH]c3ccc(Cl)cc23)c(N)c1C#N`, for which the GI50 in the experiment with ACHN renal, in the experiment with HOP-62 NSCLC, in the experiment on LOX IMVI melanoma, in the experiment with MDA-MB-435, with NCI/ADR-RES ovarian and in the experiment on SK-MEL-5 melanoma was more than 100 µM throughout. In addition, the GI50 in the experiment with T-47D breast is 38.9 µM. The TGI with ACHN renal, in the experiment on HOP-62 NSCLC, with LOX IMVI melanoma, in the experiment on MDA-MB-435, in the experiment on NCI/ADR-RES ovarian and with SK-MEL-5 melanoma was more than 100 µM each time. For the same molecule, the TGI in the experiment on T-47D breast was more than 100 µM.
`COC(=O)c1ccc2c(c1)C(=O)c1c-2n(CCCN=[N+]=[N-])c(=O)c2cc(OC)c(OC)cc12`: the GI50 with ACHN renal, in the experiment on HOP-62 NSCLC, in the experiment with LOX IMVI melanoma, in the experiment on MDA-MB-435, in the experiment on NCI/ADR-RES ovarian and in the experiment with SK-MEL-5 melanoma was more than 100 µM throughout. The TGI with ACHN renal, with HOP-62 NSCLC, in the experiment on LOX IMVI melanoma, in the experiment on MDA-MB-435, in the experiment with NCI/ADR-RES ovarian and in the experiment with SK-MEL-5 melanoma was more than 100 µM each time.
Regarding `CCOC(=O)Nc1cc2c(c(N)n1)N=C(c1ccccc1)CO2`, the GI50 is 0.986 µM in the experiment on ACHN renal; 0.45 µM in the experiment with HOP-62 NSCLC; 0.368 µM with LOX IMVI melanoma; 0.0169 µM with MDA-MB-435; 0.061 µM in the experiment on NCI/ADR-RES ovarian; 0.174 µM with SK-MEL-5 melanoma. Moreover, the GI50 with T-47D breast is 20.4 µM. The TGI in the experiment with ACHN renal is 31.7 µM; in the experiment with HOP-62 NSCLC, 24.3 µM; with LOX IMVI melanoma, more than 100 µM; with MDA-MB-435 it was 0.0399 µM; in the experiment on NCI/ADR-RES ovarian, 21.5 µM; with SK-MEL-5 melanoma, 5.9 µM. Besides, the TGI in the experiment with T-47D breast came to 73.3 µM.
In the case of `O=c1c(F)cn(Cc2ccc(C34CC5CC(CC(C5)C3)C4)c(O)c2)c(=O)n1Cc1ccc(C23CC4CC(CC(C4)C2)C3)c(O)c1`, the GI50 in the experiment on ACHN renal was 13.5 µM; in the experiment on HOP-62 NSCLC, 17.5 µM; with LOX IMVI melanoma, 6.98 µM; in the experiment on MDA-MB-435, 14.4 µM; in the experiment on NCI/ADR-RES ovarian it was 14.3 µM; with SK-MEL-5 melanoma, 13.9 µM. For the same molecule, the GI50 with T-47D breast is 20.8 µM. Besides, the total growth inhibition concentration (TGI) in the experiment with ACHN renal was found to be 26.3 µM; in the experiment on HOP-62 NSCLC, 33.1 µM; with LOX IMVI melanoma it was 20 µM; in the experiment with MDA-MB-435 it was 29.2 µM; in the experiment on NCI/ADR-RES ovarian, 28.9 µM; in the experiment with SK-MEL-5 melanoma it was 27 µM. The molecule further returned a total growth inhibition concentration (TGI) in the experiment on T-47D breast of 51.6 µM.
Regarding `COc1cc(Cl)cc(-c2nn(-c3cccc(NC(=O)c4ccc(N5CCOCC5)c(C(F)(F)F)c4)c3)cc2-c2ccncc2)c1`, the GI50 in the experiment with ACHN renal was 7.31 µM; in the experiment on HOP-62 NSCLC, 62.5 µM; in the experiment on LOX IMVI melanoma it was 15.8 µM; in the experiment on MDA-MB-435, 43.6 µM; with NCI/ADR-RES ovarian it was 6.17 µM; in the experiment with SK-MEL-5 melanoma, 16.5 µM. Further, in the experiment on T-47D breast, the GI50 is 10.4 µM. Besides, the total growth inhibition concentration (TGI) in the experiment on ACHN renal, with HOP-62 NSCLC, in the experiment with LOX IMVI melanoma, in the experiment on MDA-MB-435, in the experiment on NCI/ADR-RES ovarian and in the experiment with SK-MEL-5 melanoma was more than 100 µM throughout. Further, the TGI in the experiment with T-47D breast was more than 100 µM.
In the case of `Nc1ncn([C@@H]2O[C@H](CO)[C@@H](O)[C@H]2O)c(=O)n1`, the GI50 with ACHN renal is 0.664 µM; in the experiment on HOP-62 NSCLC it was 0.49 µM; in the experiment on LOX IMVI melanoma, 0.292 µM; in the experiment on NCI/ADR-RES ovarian, 1.2 µM; in the experiment on SK-MEL-5 melanoma it was 2.15 µM. Besides, the TGI was determined as 16.7 µM in the experiment with ACHN renal; 2.67 µM in the experiment with HOP-62 NSCLC; 2.1 µM in the experiment on LOX IMVI melanoma; 10.6 µM with NCI/ADR-RES ovarian; 7.04 µM in the experiment on SK-MEL-5 melanoma.
In the case of `COc1cnc2c(c1)C(=O)c1c-2n(CCCNC2=NCCS2)c(=O)c2cc([N+](=O)[O-])ccc12`, the figures for the GI50 with ACHN renal, in the experiment with MDA-MB-435 and in the experiment on SK-MEL-5 melanoma were less than 0.01 µM, 0.478 µM and 0.0284 µM, respectively. The values for the TGI in the experiment with ACHN renal, in the experiment with MDA-MB-435 and in the experiment with SK-MEL-5 melanoma were 1.15 µM, 2.29 µM and 0.157 µM, respectively.
With `CC(C)(/C=C(\C#N)C(=O)N1CCC[C@@H](n2nc(-c3ccc(Oc4ccccc4)cc3F)c3c(N)ncnc32)C1)N1CCN(C2COC2)CC1`, the GI50 is 4.53 µM in the experiment on ACHN renal; 10.1 µM with HOP-62 NSCLC; 3.37 µM in the experiment on LOX IMVI melanoma; 4.81 µM in the experiment on MDA-MB-435; 14.7 µM with NCI/ADR-RES ovarian; 3.96 µM in the experiment on SK-MEL-5 melanoma. In the experiment on T-47D breast, the GI50 is 4.77 µM. Further, the TGI turned out to be 17.1 µM in the experiment on ACHN renal; 25.7 µM in the experiment with HOP-62 NSCLC; 15.2 µM in the experiment on LOX IMVI melanoma; 17.3 µM in the experiment with MDA-MB-435; 43.7 µM in the experiment with NCI/ADR-RES ovarian; 13.9 µM in the experiment with SK-MEL-5 melanoma. This molecule also came in with a TGI in the experiment with T-47D breast of 29.5 µM.
With `CC(=O)Nc1ccc(-c2csc(Nc3cccc(-c4csc(C)n4)c3)n2)cc1`, the GI50 with ACHN renal is 1.87 µM; in the experiment with HOP-62 NSCLC, 3.02 µM; with LOX IMVI melanoma, 0.375 µM; in the experiment on MDA-MB-435, 0.23 µM; in the experiment on NCI/ADR-RES ovarian, 0.642 µM; in the experiment on SK-MEL-5 melanoma, 0.26 µM. Further, the GI50 with T-47D breast is 2.65 µM. The TGI is 22.6 µM in the experiment with ACHN renal; 15 µM in the experiment with HOP-62 NSCLC; 10.1 µM in the experiment with LOX IMVI melanoma; 6.84 µM with NCI/ADR-RES ovarian; 8.62 µM in the experiment on SK-MEL-5 melanoma; more than 43.2 µM in the experiment with T-47D breast.
